Activity calls are given as the source filed them.
Experiments:
Escherichia coli = assay: microbe, parasite or virus in culture
[1] = viability of uninfected HEp-2 cells – cell-based, HTS, cytotoxicity control for RSV inhibitor project, dose response (AID 2410); format: functional; details: human respiratory syncytial virus
[2] = molecular target: T1, Heat shock factor protein 1 (Mus musculus, UniProt P38532); assay: decrease of HSF1-responsive luciferase luminescence – cell-based, NIH3T3, dose retest, confirmation (AID 2382); format: functional;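 also: NIH3T3 fibroblasts with HSF1-driven luciferase reporter stressed by proteasome inhibitor MG132; luminescence from HSF1-driven luciferase expression after 8 hours of MG132 stress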
T1 sequence (P38532 whole entry): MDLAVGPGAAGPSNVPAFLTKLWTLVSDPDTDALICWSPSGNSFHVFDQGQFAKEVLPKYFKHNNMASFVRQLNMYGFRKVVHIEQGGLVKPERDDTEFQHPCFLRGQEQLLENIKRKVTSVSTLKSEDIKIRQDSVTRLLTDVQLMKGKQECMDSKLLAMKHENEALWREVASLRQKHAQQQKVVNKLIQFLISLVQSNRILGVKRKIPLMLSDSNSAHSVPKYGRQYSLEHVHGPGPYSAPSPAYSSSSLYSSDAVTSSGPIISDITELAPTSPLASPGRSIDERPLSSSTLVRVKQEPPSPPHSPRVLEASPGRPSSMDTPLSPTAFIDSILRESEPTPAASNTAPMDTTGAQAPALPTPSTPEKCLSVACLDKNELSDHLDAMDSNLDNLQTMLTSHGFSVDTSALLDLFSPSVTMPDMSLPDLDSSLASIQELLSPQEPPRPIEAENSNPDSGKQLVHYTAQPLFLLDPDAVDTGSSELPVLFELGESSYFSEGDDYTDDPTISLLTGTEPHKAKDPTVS

Streptococcus = assay: GAS UMAA2166 growth inhibition – luminescence, BacTiterGlo, counter-screen for streptokinase expression inhibitor project, dose response (AID 1915); format: functional, organism-based;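 also: potency for reduction of bacterial viability or growth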
[3] = system: Streptococcus sp. 'group A'; assay: Streptococcus pyogenes SK(-)GAS viability under kanamycin – luminescence, BacTiterGlo, confirmation, counter-screen for streptokinase expression inhibitor project, dose response (AID 1900); format: functional, organism-based
[4] = fluconazole-exposed Candida albicans growth modulators – fluorescence, retest, confirmation (AID 2467); format: functional, cell-based
[5] = molecular target: T2, Ubiquitin-conjugating enzyme E2 N (Homo sapiens, UniProt P61088); format: functional
T2 sequence (P61088 whole entry): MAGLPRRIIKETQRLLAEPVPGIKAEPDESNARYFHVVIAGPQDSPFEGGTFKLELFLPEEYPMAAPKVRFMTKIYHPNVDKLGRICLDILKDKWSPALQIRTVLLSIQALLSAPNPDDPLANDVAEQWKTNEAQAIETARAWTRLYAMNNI

[6] = molecular target: T3, DNA repair protein RAD52 homolog (Homo sapiens, UniProt P43351); format: functional, biochemical
T3 sequence (P43351 whole entry): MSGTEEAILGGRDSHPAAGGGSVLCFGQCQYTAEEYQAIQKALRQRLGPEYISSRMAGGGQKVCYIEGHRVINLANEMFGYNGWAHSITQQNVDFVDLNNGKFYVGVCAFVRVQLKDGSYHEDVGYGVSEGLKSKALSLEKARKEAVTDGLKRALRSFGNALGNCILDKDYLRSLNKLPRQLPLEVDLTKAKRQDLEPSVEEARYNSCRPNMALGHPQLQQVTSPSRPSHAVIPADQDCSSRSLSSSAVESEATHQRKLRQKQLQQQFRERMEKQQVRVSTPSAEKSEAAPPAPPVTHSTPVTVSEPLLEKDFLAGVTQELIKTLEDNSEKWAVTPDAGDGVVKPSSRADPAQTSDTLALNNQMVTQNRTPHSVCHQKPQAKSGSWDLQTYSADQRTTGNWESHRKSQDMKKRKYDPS

[7] = molecular target: T2, Ubiquitin-conjugating enzyme E2 N; format: functional; remark: listed apart in the source
[8] = molecular target: T4, Apoptotic protease-activating factor 1 (Homo sapiens, UniProt O14727); format: functional
T4 sequence (O14727 whole entry): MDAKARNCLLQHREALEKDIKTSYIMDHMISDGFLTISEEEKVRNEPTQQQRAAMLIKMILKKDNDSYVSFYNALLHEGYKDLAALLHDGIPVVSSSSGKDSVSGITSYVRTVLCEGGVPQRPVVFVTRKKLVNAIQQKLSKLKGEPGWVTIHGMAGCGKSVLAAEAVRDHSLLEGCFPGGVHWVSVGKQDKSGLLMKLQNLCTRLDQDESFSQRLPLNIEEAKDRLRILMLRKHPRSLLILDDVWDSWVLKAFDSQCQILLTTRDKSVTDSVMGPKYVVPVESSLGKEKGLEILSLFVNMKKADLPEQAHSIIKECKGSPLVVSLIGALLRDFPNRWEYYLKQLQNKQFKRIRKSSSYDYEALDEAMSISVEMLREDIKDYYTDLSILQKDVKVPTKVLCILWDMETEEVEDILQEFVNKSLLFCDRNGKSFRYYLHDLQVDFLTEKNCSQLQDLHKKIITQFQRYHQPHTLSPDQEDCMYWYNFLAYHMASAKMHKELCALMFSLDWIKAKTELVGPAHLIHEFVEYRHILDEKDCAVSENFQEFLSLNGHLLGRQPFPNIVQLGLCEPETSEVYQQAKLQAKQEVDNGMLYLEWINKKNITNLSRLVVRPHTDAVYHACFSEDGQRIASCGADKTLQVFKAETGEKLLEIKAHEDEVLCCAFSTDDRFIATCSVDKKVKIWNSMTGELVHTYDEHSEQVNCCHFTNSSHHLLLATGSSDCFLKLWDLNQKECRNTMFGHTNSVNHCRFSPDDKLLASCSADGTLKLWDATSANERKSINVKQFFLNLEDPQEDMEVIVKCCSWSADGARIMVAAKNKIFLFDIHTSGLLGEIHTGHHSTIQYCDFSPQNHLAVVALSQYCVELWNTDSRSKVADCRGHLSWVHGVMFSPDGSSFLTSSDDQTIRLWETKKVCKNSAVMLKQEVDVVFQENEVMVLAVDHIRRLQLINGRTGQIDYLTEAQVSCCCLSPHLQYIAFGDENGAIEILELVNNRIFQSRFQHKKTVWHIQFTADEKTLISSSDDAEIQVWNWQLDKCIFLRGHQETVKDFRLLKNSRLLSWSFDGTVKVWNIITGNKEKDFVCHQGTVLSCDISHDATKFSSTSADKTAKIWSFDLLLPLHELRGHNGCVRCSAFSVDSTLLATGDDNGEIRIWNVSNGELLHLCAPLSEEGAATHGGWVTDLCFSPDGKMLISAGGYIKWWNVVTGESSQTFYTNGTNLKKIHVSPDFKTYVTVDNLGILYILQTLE

[9] = molecular target: Glucose-6-phosphate 1-dehydrogenase (Homo sapiens, UniProt P11413); assay: inhibition of Homo sapiens G6PD, dose series – biochemical, fluorescence, selectivity assay for P. falciparum G6PD inhibitor project, dose response (AID 504792); format: functional
[10] = NIH-3T3 fibroblast cytotoxicity, dose response, cytotoxicity control, cell-based, fluorescence, Alamar Blue, secondary assay (AID 2327); format: functional;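 also: NIH-3T3 mouse fibroblasts cultured with fluconazole at 8 µg/mL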
Protein skinhead-1 = molecular target: T5, Protein skinhead-1 (Caenorhabditis elegans, UniProt P34707); format: functional
T5 sequence (P34707 whole entry): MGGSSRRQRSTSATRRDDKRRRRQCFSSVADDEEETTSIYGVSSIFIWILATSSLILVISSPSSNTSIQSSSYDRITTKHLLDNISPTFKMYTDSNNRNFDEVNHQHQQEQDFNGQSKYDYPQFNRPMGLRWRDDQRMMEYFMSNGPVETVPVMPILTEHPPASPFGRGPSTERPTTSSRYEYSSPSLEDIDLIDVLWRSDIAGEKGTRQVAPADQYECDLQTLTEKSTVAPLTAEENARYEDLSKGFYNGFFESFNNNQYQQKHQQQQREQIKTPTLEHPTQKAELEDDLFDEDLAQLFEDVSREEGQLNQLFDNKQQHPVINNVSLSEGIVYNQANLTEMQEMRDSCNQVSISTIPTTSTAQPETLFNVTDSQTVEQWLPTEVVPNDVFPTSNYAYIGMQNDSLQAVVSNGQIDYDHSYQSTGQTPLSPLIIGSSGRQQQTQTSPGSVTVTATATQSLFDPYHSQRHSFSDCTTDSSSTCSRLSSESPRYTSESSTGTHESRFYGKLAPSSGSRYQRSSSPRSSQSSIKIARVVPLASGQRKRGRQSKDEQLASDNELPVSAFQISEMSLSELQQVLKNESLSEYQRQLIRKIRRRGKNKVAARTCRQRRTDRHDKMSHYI

Bcl-2-related protein A1 = molecular target: T6, Bcl-2-related protein A1 (Mus musculus, UniProt Q07440); format: functional;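 also: confirmatory dose–response counterscreen on Bfl-1, used to check hits from a UBC13 polyubiquitin inhibitor campaign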
T6 sequence (Q07440 whole entry): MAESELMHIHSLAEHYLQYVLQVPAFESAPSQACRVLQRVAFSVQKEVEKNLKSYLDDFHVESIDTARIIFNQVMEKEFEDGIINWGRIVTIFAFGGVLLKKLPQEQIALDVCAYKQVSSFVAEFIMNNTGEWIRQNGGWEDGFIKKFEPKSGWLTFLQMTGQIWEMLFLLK

Mu-type opioid receptor = Mu-type opioid receptor (Homo sapiens, UniProt P35372); assay: (§1) Counterscreen for agonists of heterodimerization of the mu 1 (OPRM1) and delta 1 (OPRD1) opioid receptors: Luminescence-based cell-based high throughput dose response assay to identify agonists of OPRM1 homodimerization.; format: functional
[11] = molecular target: Delta-type opioid receptor (Homo sapiens, UniProt P41143); assay: as §1, with “of OPRD1” for “of OPRM1”, “homodimerization. [Related pubchem assays (depositor defined):AID504326, AID504355, AID504692, AID504904, AID504905]” for “homodimerization.”; format: functional
[12] = molecular target: 5-hydroxytryptamine receptor 5A (Homo sapiens, UniProt P47898); assay: Counterscreen for agonists of OPRM1-OPRD1 heterodimerization: luminescence-based cell-based high throughput dose response assay to identify agonists of 5-hydroxytryptamine (serotonin) 5A receptor (HTR5A). [Related pubchem assays (depositor defined):AID504326, AID504355, AID504692, AID504904, AID504905]; format: functional
Cysteine protease ATG4B = Cysteine protease ATG4B (Homo sapiens, UniProt Q9Y4P1); format: functional;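 also: Fluorescence-based dose-response confirmation assay measuring inhibition of ATG4B activity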
Phospholipase A2 = Phospholipase A2 (Homo sapiens, UniProt P04054); format: functional;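 also: confirmatory dose-response counterscreen on phospholipase A2, testing hits that came from an ultra-high-throughput screen for ATG4B inhibitors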
Candida albicans = assay: fluconazole-resistant Candida strain growth inhibitors – CaCi-8 strain, dry powder, set 4, dose response (AID 488950); format: functional, organism-based

Sequence of 5-hydroxytryptamine receptor 5A (P47898 whole entry): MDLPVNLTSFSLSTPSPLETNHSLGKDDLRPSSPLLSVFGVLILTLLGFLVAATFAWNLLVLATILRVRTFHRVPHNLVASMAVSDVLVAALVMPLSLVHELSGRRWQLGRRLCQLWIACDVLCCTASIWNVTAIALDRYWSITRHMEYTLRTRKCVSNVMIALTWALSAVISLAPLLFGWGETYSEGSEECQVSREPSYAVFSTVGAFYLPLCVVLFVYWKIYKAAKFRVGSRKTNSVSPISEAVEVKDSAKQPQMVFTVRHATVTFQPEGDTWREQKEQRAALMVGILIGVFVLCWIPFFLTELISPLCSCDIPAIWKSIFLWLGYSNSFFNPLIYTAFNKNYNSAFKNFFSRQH
Sequence of Phospholipase A2 (P04054 whole entry): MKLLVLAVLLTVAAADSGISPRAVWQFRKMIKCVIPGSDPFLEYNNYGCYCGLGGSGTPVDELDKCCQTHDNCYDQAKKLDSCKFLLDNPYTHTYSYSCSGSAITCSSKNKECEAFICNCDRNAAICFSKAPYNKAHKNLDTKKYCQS
Sequence of Mu-type opioid receptor (P35372 whole entry): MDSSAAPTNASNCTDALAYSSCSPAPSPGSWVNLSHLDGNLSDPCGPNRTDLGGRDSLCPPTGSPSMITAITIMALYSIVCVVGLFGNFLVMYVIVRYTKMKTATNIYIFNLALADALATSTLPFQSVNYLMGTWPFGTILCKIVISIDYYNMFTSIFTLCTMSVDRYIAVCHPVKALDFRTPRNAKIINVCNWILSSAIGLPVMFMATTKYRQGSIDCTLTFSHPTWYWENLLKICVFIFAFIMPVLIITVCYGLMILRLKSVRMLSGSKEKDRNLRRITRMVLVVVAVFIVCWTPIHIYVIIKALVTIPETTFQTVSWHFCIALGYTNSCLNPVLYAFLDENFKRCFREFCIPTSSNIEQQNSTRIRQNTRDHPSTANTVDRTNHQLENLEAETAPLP
Sequence of Delta-type opioid receptor (P41143 whole entry): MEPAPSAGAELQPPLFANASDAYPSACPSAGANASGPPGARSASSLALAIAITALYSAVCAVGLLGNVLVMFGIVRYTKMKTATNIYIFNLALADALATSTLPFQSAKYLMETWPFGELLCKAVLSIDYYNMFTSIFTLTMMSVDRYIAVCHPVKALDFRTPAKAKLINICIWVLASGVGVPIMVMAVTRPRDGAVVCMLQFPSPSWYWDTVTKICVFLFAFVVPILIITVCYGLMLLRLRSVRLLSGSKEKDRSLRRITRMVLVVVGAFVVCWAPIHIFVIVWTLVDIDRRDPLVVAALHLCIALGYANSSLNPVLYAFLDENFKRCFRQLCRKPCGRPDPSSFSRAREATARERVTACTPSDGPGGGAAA
Sequence of Cysteine protease ATG4B (Q9Y4P1 whole entry): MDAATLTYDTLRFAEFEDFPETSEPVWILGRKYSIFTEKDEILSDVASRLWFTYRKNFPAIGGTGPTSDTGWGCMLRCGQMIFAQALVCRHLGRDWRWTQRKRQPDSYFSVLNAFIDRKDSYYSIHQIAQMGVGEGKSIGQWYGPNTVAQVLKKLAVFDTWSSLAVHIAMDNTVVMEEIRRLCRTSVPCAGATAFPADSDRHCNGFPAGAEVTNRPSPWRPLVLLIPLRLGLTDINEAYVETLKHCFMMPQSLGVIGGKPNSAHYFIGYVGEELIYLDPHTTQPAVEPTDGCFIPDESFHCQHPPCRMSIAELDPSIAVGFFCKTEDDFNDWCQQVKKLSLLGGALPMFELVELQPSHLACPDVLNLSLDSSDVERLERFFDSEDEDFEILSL
Sequence of Glucose-6-phosphate 1-dehydrogenase (P11413 whole entry): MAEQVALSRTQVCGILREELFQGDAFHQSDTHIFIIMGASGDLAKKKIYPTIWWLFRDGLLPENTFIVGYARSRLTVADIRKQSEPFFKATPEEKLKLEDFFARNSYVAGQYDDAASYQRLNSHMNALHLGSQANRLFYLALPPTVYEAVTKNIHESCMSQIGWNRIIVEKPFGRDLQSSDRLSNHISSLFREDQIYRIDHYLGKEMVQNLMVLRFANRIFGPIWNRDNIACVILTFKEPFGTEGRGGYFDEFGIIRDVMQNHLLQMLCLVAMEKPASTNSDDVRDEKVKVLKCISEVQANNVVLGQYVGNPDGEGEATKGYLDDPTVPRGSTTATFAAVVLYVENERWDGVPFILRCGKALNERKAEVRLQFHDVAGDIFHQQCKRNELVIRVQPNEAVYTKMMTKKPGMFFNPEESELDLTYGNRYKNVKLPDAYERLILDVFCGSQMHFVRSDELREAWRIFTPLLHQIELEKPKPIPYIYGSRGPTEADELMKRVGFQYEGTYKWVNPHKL

Which results are given for `COc1c(N2CCN(C(S)=NC3CC4CCC3C4)C(C)C2)c(F)cc2c(=O)c(C(=O)O)cn(C3CC3)c12` (stereo unspecified)?
AC50 (Escherichia coli): 2.64 µM (active); CC50 [1]: 9.91 µM (active); EC50 [2]: 17 µM (active); EC50 (Streptococcus): 3.77 µM (active); EC50 [3]: 5.85 µM (active)

For `Cc1ccc2nc(-c3ccc(NC(S)=NC4CC(C)(C)NC(C)(C)C4)cc3)sc2c1`, which EC50 [4] is on record?
The EC50 was > 38 µM (not active).

And the IC50 [5]?
Its IC50 is > 20 µM (inactive).

And the AC50 [6]?
Its AC50 is 4.95 µM (active).

And the IC50 [7]?
Its IC50 is 16.8 µM (active).

And the IC50 [8]?
Its IC50 is 43.6 µM (active).

And the IC50 [9]?
Its IC50 is > 80 µM (inactive).

What about the EC50 [10] of the same compound?
The EC50 was > 150 µM (inactive).

And the IC50 (Protein skinhead-1)?
Its IC50 is 35.1 µM (active).

What about the IC50 (Bcl-2-related protein A1) of the same compound?
Its IC50 is > 20 µM (inactive).

For `COc1ccccc1CN1CCN(C(CC(C)C)c2nnnn2Cc2cccs2)CC1` (stereo unspecified), which EC50 (Mu-type opioid receptor) is on record?
Its EC50 is > 92.5 µM (inactive).

And the EC50 [11]?
Its EC50 is > 92.5 µM (inactive).

And the EC50 [12]?
The EC50 was > 92.5 µM (inactive).

What does the source list for `O=C(O)CC/C(=C\c1ccc(Cl)c([N+](=O)[O-])c1)c1nc2ccccc2s1`?
IC50 (Cysteine protease ATG4B): 14.3 µM (active); IC50 (Phospholipase A2): 12.3 µM (active)

For `CCCCNC(=O)N1CCN(c2ccnc3cc(Cl)ccc23)CC1`, which AC50 (Candida albicans) is on record?
The AC50 was 23 µM (active).

With `O=C1OC(c2cccs2)=N/C1=C\c1ccc(-c2cccc(Cl)c2)o1` as the compound, how does the IC50 (Cysteine protease ATG4B) read?
The IC50 was 14.8 µM (active).

What about the IC50 (Phospholipase A2) of the same compound?
The IC50 was 0.605 µM (active).

With `CN(C)C(CNC(=O)c1ccc2ccccc2c1)c1ccco1` (stereo unspecified) as the compound, how does the EC50 (Mu-type opioid receptor) read?
Its EC50 is > 92.5 µM (inactive).

What about the EC50 [11] of the same compound?
The EC50 was > 92.5 µM (inactive).

What about the EC50 [12] of the same compound?
Its EC50 is > 92.5 µM (inactive).

Which AC50 (Escherichia coli) does the source give for `CCN(CC)S(=O)(=O)c1ccc(=O)n(CC(=O)N2Cc3ccccc3CC2C(N)=O)c1` (stereo unspecified) here?
Its AC50 is 116 µM (active).
